The values that follow are results of earlier work, collected in patent publication US20080286344A1, “Solid form” (priority 2007, published 2008).

The structures appear in SMILES notation.

For `Cn1c(=O)c2[nH]cnc2n(C)c1=O` [theophylline], for the setting “1 g active in stated g of water”, the “Solubility in water, g of water for 1 g” value was 100-1000 g water. The “Solubility in water (descriptive term)” value (water) is reported as “slightly soluble”.
